Laboratory results reported in ChEMBL document CHEMBL3886463, “Triazolopyridine compounds” (2016).

Molecular target: cAMP and cAMP-inhibited cGMP 3',5'-cyclic phosphodiesterase 10A (Homo sapiens, UniProt Q9Y233)
Experiment: Inhibition Assay: The human PDE10A full length assay was performed in 96-well micro titer plates. The reaction mixture of 50 ul contained 20 mM HEPES pH=7.5/10 mM MgCl2/0.05 mg/ml BSA (Sigma cat. # A-7906), 50 nM cGMP (Sigma, cat. # G6129) and 50 nM [3H]-cGMP (GE Healthcare, cat. # TRK392 S.A. 13.2 Ci/mmol), 3.75 ng/well PDE10A enzyme (Enzo Life Science, Lausen, Switzerland cat # SE-534) with or without a specific test compound. A range of concentrations of the potential inhibitor was used to generate data for calculating the concentration of inhibitor resulting in 50% of the effect (e.g. IC50, the concentration of the competitor inhibiting PDE10A activity by 50%). Non-specific activity was tested without the enzyme. The reaction was initiated by the addition of the substrate solution (cGMP and [3H]-cGMP) and allowed to progress for 20 minutes at room temperature. The reaction was terminated by adding 25 ul of YSi-SPA scintillation beads (GE Healthcare, cat. # RPNQ0150) in 18 mM zinc sulphate.

Chain of cAMP and cAMP-inhibited cGMP 3',5'-cyclic phosphodiesterase 10A (Q9Y233 whole entry): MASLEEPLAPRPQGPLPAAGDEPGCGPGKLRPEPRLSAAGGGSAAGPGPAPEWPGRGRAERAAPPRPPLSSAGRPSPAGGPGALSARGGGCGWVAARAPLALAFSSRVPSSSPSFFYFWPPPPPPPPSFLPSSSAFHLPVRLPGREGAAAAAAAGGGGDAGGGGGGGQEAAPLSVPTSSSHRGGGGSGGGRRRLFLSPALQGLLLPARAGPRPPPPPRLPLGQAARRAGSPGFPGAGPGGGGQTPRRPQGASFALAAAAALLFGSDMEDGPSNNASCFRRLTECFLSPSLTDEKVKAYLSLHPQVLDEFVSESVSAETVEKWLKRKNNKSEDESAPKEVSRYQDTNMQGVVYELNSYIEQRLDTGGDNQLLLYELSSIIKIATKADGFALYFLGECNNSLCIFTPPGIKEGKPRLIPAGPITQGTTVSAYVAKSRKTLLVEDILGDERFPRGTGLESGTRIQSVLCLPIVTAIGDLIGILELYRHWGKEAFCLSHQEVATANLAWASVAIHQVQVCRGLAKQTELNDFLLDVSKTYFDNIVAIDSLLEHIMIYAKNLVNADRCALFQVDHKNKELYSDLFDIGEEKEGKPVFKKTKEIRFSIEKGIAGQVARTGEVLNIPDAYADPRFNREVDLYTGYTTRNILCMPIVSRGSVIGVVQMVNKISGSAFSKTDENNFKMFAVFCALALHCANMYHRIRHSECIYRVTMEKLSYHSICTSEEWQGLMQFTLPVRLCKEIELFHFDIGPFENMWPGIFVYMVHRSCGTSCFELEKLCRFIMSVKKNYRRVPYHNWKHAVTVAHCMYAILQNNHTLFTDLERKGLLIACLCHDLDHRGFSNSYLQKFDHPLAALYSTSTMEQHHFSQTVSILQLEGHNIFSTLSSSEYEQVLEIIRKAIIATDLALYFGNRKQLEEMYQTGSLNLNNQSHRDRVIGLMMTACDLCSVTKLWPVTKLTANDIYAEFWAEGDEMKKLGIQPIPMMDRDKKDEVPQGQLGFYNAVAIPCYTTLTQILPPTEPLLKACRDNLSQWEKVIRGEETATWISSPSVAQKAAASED

IC50 [nM]	Compound
3.3	CCN(CC)c1nc2ccc(NC(=O)c3c(C(=O)N4CCCC4)cnn3C)cn2n1
23.1	Cn1ncc(C(=O)N2CCC2)c1C(=O)Nc1ccc2nc(N3CCOCC3)nn2c1
